Like-named read-outs stand apart in the source and are kept apart here.
Columns and labels:
[1] = molecular target: AmpC β-lactamase from E. coli (Escherichia coli, UniProt P00811); assay: biochemical; type: biochemical
[2] = molecular target: T1, TEM-1 β-lactamase from E. coli (Escherichia coli, UniProt P62593); assay: Inhibition of TEM-1 β-lactamase, spectrophotometric assay (FAP substrate); type: biochemical
T1 construct: gift: Natalie Strynadka, University of Alberta

[3] = system: β-lactamase derepressed strain of Enterobacter cloacae (Ent-Der); assay: microbe, parasite or virus in culture; type: cell-based; details: Ent. Der.; for MIC of ceftazidime plus inhibitor: Table 3A, proportion 4/1, given as CAZ/inhibitor; for MIC of inhibitor used alone without ceftazidime: Table 3B; on MIC of ceftazidime plus inhibitor: values in µg/ml
Experimental: (§1) After incubation, the growth of the cells was visually inspected. The minimum inhibitory concentration (MIC) is the lowest concentration where there no cell growth was observed.
(§2) The following strains were used: Enterobacter cloacae cell line with derepressed β-lactamase production (Ent-Der), and Escherichia coli RYC1000 (araD139 D lacU169 rpsL D rib7 thiA gyrA recA56) cell lines, harboring the plasmid pBGS19 (with no β-lactamase), or the β-lactamase containing plasmids pBGAmpC (AmpC β-lactamase from E. coli; Eco-AmpC), or pBGAmpC-MHN (AmpC β-lactamase from Enterobacter cloacae; Eco-AmpCEnt). […] TEM-10 and TEM-24 differ from TEM-1 due to the following point substitutions: TEM-10 (R164S, E240K); TEM-24 (L102K, L162S, S235T, A237K). TEM-10 and TEM-24 also differ from TEM-1 in being extended spectrum enzymes (i.e., they react with a greater range of substrates than TEM-1). Also tested were clinical isolates of Pseudomonas aeruginosa. All bacterial strains and plasmids are available from Jesus Blazquez and Fernando Baquero, Servicio de Microbiologia, Hospital Ramon y Cajal, National Institute of Health, Madrid, Spain.
(§3) Several ratios, including 1:1, 2:1, 4:1, and 1:3, of β-lactam antibiotic (amoxicillin (AX) or ceftazidime (CAZ)) to boronic acid compound were used in the assays. Tazobactam (TAZO), a clinically used β-lactamase inibitor, was used as a positive control.

[4] = system: E. coli RYC1000 harboring plasmid pBGS19 (no β-lactamase); assay: microbe, parasite or virus in culture; type: cell-based, Escherichia coli; details: pBGS19; for MIC of ceftazidime plus inhibitor: Table 3A, proportion 4/1; for MIC of inhibitor used alone without ceftazidime: Table 3B
Experimental: as §1, §2, §3

[5] = system: E. coli RYC1000 harboring plasmid pBGAmpC-MHN (AmpC β-lactamase of Enterobacter cloacae); assay: microbe, parasite or virus in culture; type: cell-based, Escherichia coli; details: AmpC-MHN; for MIC of ceftazidime plus inhibitor: Table 3A, proportion 4/1, given as CAZ/inhibitor; for MIC of inhibitor used alone without ceftazidime: Table 3B; on MIC of ceftazidime plus inhibitor: values in µg/ml
Experimental: as §1, §2, §3

[6] = system: E. coli RYC1000 harboring plasmid pBGTEM-24 (TEM-24 β-lactamase); assay: microbe, parasite or virus in culture; type: cell-based, Escherichia coli; details: for MIC of ceftazidime plus inhibitor: Table 3A, proportion 4/1, given as CAZ/inhibitor; for MIC of inhibitor used alone without ceftazidime: Table 3B; on MIC of ceftazidime plus inhibitor: values in µg/ml
Experimental: as §1, §2, §3

[7] = Table 5, as described in Example 2, read-out: Ki AmpC
[8] = Tables 2A/2B, pH 7.0, 25° C., 100 μM FAP, N.I. = no inhibition observed at an inhibitor concentration of 100 μM, read-out: Ki E. coli TEM-1
[9] = Tables 2A/2B, pH 7.0, 25° C., 100 μM cephalothin, read-out: Ki E. coli AmpC
[10] = pH 7, read-out: Ki E. coli AmpC

Chain of AmpC β-lactamase from E. coli (P00811 20-377): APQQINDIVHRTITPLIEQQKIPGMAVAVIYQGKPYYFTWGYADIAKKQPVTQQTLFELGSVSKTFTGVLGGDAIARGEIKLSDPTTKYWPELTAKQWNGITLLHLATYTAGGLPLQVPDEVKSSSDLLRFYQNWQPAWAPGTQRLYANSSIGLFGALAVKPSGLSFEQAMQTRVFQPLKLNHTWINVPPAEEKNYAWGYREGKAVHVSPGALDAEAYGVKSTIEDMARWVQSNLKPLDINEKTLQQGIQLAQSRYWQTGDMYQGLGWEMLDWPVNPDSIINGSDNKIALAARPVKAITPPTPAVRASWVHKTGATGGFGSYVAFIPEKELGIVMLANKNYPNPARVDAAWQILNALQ
T1 sequence (P62593 24-286 limits assumed): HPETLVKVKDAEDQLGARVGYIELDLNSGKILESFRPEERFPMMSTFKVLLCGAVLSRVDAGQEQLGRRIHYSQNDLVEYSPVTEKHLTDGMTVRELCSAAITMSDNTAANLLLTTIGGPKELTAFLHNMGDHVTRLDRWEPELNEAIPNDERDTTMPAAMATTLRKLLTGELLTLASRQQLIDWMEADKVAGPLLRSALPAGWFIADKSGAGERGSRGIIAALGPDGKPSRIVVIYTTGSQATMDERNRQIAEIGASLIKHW

Work on `OB(O)c1ccc2[nH]ccc2c1` yielded a Ki [1, 7] of 10.9 ± 0.6 µM.
`OB(O)[C@H]1CCOC1` [(S)-3-tetrahydrofuranylboronic acid] gave a Ki ([1]; read-out: Ki for AmpC) of 15.8 ± 0.8 µM.
`O=Cc1ccccc1B(O)O` [2FORMB, 2-formylphenylboronate, reference compound] gave a Ki [2, 8] of over 100 µM and a Ki [1, 9] of 62 µM.
For `OB(O)c1ccc(Cl)s1` [5CLTH2B, 5-chlorothiophene-2-boronic acid], the Ki [2] was 17 µM, the Ki [1, 9] was 1.4 µM and the “MIC of ceftazidime plus inhibitor” value [3] was 32/8. The “MIC of inhibitor used alone without ceftazidime” value [3] was 128 µg/mL, the “MIC of ceftazidime plus inhibitor” value [4] was under 0.25 µg/mL and the “MIC of inhibitor used alone without ceftazidime” value [4] was 128 µg/mL. For the same molecule, the “MIC of ceftazidime plus inhibitor” value [5] was 4/1, the “MIC of inhibitor used alone without ceftazidime” value [5] was 128 µg/mL and the “MIC of ceftazidime plus inhibitor” value [6] was 128/32. The “MIC of inhibitor used alone without ceftazidime” value [6] was 128 µg/mL.
`OB(O)c1ccc2c(c1)OCO2` showed a Ki [1, 7] of 53.4 ± 6.1 µM.
`OB(O)c1ccc(Br)cc1` [4BPB, 4-bromophenylboronic acid] was tested, and the Ki [2] was 31.3 µM and the Ki ([1]; Ki E. coli AmpC) was 2.6 µM.
`Oc1ccc(N=Nc2ccc(Br)cc2)cc1B1OB(c2cc(N=Nc3ccc(Br)cc3)ccc2O)OB(c2cc(N=Nc3ccc(Br)cc3)ccc2O)O1` [4BPAPB, 2,4,6-tris(β-(4-bromophenylazo)-2-hydroxyphenyl) boroxin] was tested, and the Ki [2, 8] was 1.2 µM, the Ki [1, 10] was 7.2 µM and the “MIC of ceftazidime plus inhibitor” value [3] was 512/128. For the same molecule, the “MIC of inhibitor used alone without ceftazidime” value [3] was over 512 µg/mL, the “MIC of ceftazidime plus inhibitor” value [4] was under 0.25 µg/mL and the “MIC of inhibitor used alone without ceftazidime” value [4] was 128 µg/mL. For the same molecule, the “MIC of ceftazidime plus inhibitor” value [5] was 8/2, the “MIC of inhibitor used alone without ceftazidime” value [5] was 256 µg/mL and the “MIC of ceftazidime plus inhibitor” value [6] was 256/64. For the same molecule, the “MIC of inhibitor used alone without ceftazidime” value [6] was 256 µg/mL.
`CN1C(=O)/C(=N\Nc2cccc(B(O)O)c2)c2ccccc2C1=O` gave a Ki [1, 7] of 0.075 µM.
With `O=C(O)/C=C/c1cccc(B(O)O)c1` the Ki [1, 7] was 5.9 ± 0.3 µM.
For `OB(O)[C@@H]1CCOC1` [(R)-3-tetrahydrofuranyl-boronic acid], the Ki ([1]; read-out: Ki for AmpC) was 1.4 ± 0.1 µM.
`OB(O)c1ccc(C(F)(F)F)cc1` [4TFMB] was tested, and the Ki [2, 8] was 6.3 µM and the Ki [1, 10] was 9 µM.
Molecule `O=Cc1ccc(B(O)O)cc1` [4FORMB, 4-formylphenylboronate, reference compound] has a Ki [2, 8] of 35 µM and a Ki [1, 9] of 2.8 µM.
`OB(O)c1cc(N=Nc2cccc(C(F)(F)F)c2)ccc1O` [HFAB, 2-hydroxy-5-(3-(trifluoromethyl)phenylazo) benzeneboronic acid] gave a Ki [1, 9] of 1.3 µM.
`OB(c1ccccc1)c1ccccc1` [DFB, diphenylboronic acid] was tested, and the Ki [2, 8] was over 100 µM, the “inhibition of AmpC (in words)” value [1] was “lacks measurable inhibition” and the Ki [1, 9] was over 500 µM.
For `CC(=O)c1ccc(B(O)O)s1` [5ACTH2B, 5-acetylthiophene-2-boronic acid], the Ki [2] was over 50 µM and the Ki [1, 9] was 1.8 µM.
For `OB(O)c1cccc2ccccc12` [NAPB], the Ki [2, 8] was 34 µM, the Ki [1, 9] was 10.4 µM and the “dissociation constant relative to MAPB (AmpC)” value ([1]; compared with MAPB) was “two to three-fold worse (higher)”.
